Data on 20 compounds can be found in US10329272B2 (priority 2015, dated 2019).

Usually melting point stands for the temperature, or range, at which the solid turns liquid.

Where only a bound is given, the exact number is not on record here.

Data set [1] has as its system Botryotinia fuckeliana (Botrytis cinerea). As to the kind of experiment: Botryotinia fuckeliana (Botrytis cinerea)/Liquid Culture (Gray Mould). In kind it is cell-based. The conditions noted are these: liquid culture, growth inhibition photometrically 3-4 days after application, compared to untreated control. The procedure:
Biological Examples Botryotinia fuckeliana (Botrytis cinerea)/Liquid Culture (Gray Mould)
Conidia of the fungus from cryogenic storage are directly mixed into nutrient broth (Vogels broth). After placing a (DMSO) solution of test compound into a microtiter plate (96-well format), the nutrient broth containing the fungal spores is added. The test plates are incubated at 24° C. and the inhibition of growth is determined photometrically 3-4 days after application.

Data set [2] has as its system Glomerella lagenarium (Colletotrichum lagenarium). Briefly: Glomerella Lagenarium (Colletotrichum Lagenarium)/Liquid Culture (Anthracnose). It counts as cell-based. The conditions noted are these: Colletotrichum orbiculare, liquid culture, growth inhibition photometrically 3-4 days after application, compared to untreated control. The procedure: Glomerella Lagenarium (Colletotrichum Lagenarium)/Liquid Culture (Anthracnose)
Conidia of the fungus from cryogenic storage are directly mixed into nutrient broth (PDB potato dextrose broth). After placing a (DMSO) solution of test compound into a microtiter plate (96-well format), the nutrient broth containing the fungal spores is added. The test plates are incubated at 24° C. and the inhibition of growth is measured photometrically 3-4 days after application.

Another data set deals with Sclerotinia sclerotiorum. Briefly: Sclerotinia sclerotiorum/Liquid Culture (Cottony Rot). The conditions noted are these: liquid culture, growth inhibition photometrically 3-4 days after application, compared to untreated control. In kind it is cell-based. How it is done:
Sclerotinia sclerotiorum/Liquid Culture (Cottony Rot)
Mycelia fragments of a newly grown liquid culture of the fungus are directly mixed into nutrient broth (Vogels broth). After placing a (DMSO) solution of test compound into a microtiter plate (96-well format) the nutrient broth containing the fungal material is added. The test plates are incubated at 24° C. and the inhibition of growth is determined photometrically 3-4 days after application.

In data set [3] the test system is Magnaporthe grisea (Pyricularia oryzae). Briefly: microbe, parasite or virus in culture. In kind it is cell-based. The conditions noted are these: read-out: control of Magnaporthe grisea.
The subject of data set [4] is Monographella nivalis (Microdochium nivale). Briefly: Monographella Nivalis (Microdochium Nivale)/Liquid Culture (Foot Rot Cereals). It counts as cell-based. Particulars: liquid culture, growth inhibition photometrically 4-5 days after application, compared to untreated control. The procedure: Monographella Nivalis (Microdochium Nivale)/Liquid Culture (Foot Rot Cereals)
Conidia of the fungus from cryogenic storage are directly mixed into nutrient broth (PDB potato dextrose broth). After placing a (DMSO) solution of test compound into a microtiter plate (96-well format), the nutrient broth containing the fungal spores is added. The test plates are incubated at 24° C. and the inhibition of growth is determined photometrically 4-5 days after application.

The test system of another data set is Gaeumannomyces graminis. Briefly: Gaeumannomyces Graminis/Liquid Culture (Take-all of Cereals). In kind it is cell-based. Particulars: liquid culture, growth inhibition photometrically 4-5 days after application, compared to untreated control. The procedure: Gaeumannomyces Graminis/Liquid Culture (Take-all of Cereals)
Mycelial fragments of the fungus from cryogenic storage were directly mixed into nutrient broth (PDB potato dextrose broth). After placing a (DMSO) solution of test compound into a microtiter plate (96-well format), the nutrient broth containing the fungal spores is added. The test plates are incubated at 24° C. and the inhibition of growth is determined photometrically 4-5 days after application.

For the next data set, the system named is Fusarium culmorum. As to the kind of experiment: microbe, parasite or virus in culture. It counts as cell-based. The conditions noted are these: read-out: control of Fusarium culmorum.

On to `Cc1c(Cl)ccc2c(C3=NC(C)(C)C(C)(C)c4c(F)cccc43)n(C)nc12` [Compound E-26, 1-(6-chloro-2,7-dimethyl-indazol-3-yl)-5-fluoro-3,3,4,4-tetramethyl-isoquinoline], for which the melting point was 136 to 142 °C. In data set [1], this compound registered an inhibition of growth at 20 ppm of at least 80%. The compound also came in with an inhibition of growth at 20 ppm in data set [2] of at least 80%. Moreover, in the data set on Sclerotinia sclerotiorum, the inhibition of growth at 20 ppm is at least 80%. Also, the inhibition of growth at 20 ppm in data set [3] was at least 80%. The compound further showed an inhibition of growth at 20 ppm in data set [4] of at least 80%.

On to `Cn1nc2c(Br)cccc2c1C1=NC(C)(C)C(=O)c2ccccc21` [Compound E-6, 1-(7-bromo-2-methyl-indazol-3-yl)-3,3-dimethyl-isoquinolin-4-one], for which the inhibition of growth at 20 ppm in data set [1], in data set [3] and in data set [4] was at least 80% in each case.

In turn, `Cn1nc2c(Br)cccc2c1C1=NC(C)(C)C(O)c2ccccc21` (stereo not drawn) returned a melting point of 215 to 217 °C.

The compound `Cn1nc2c(Br)cccc2c1C1=NC(C)(C)C(F)(F)c2c(F)cccc21` [Compound E-19, 1-(7-bromo-2-methyl-indazol-3-yl)-4,4,5-trifluoro-3,3-dimethyl-isoquinoline] yielded a melting point of 198 to 199 °C. The same compound displayed an inhibition of growth at 20 ppm in data set [1] of at least 80%. The compound further had an inhibition of growth at 20 ppm in data set [2] of at least 80%. The inhibition of growth at 20 ppm in data set [3] was at least 80%. This compound also had an inhibition of growth at 20 ppm in data set [4] of at least 80%.

The compound `Cn1nc2c(Br)cccc2c1C1=NC(C)(C)C(=O)c2c(F)cccc21` [Compound E-18, 1-(7-bromo-2-methyl-indazol-3-yl)-5-fluoro-3,3-dimethyl-isoquinolin-4-one] had a melting point of 260 to 261 °C. Besides, in data set [4], the inhibition of growth at 20 ppm is at least 80%.

`CC1(C)N=C(c2n[nH]c3ccccc23)c2cccc(F)c2C1(C)C` [Compound E-14, 5-fluoro-1-(1H-indazol-3-yl)-3,3,4,4-tetramethyl-isoquinoline]: the melting point is 174 to 177 °C. In data set [1], this compound yielded an inhibition of growth at 20 ppm of at least 80%.

In turn, `Cc1cccc2c(C3=NC(C)(C)C(F)(F)c4c(F)cccc43)n(C)nc12` [Compound E-20, 1-(2,7-dimethylindazol-3-yl)-4,4,5-trifluoro-3,3-dimethyl-isoquinoline] registered a melting point of 164 to 165 °C. Moreover, in data set [1], the inhibition of growth at 20 ppm was at least 80%. This compound showed an inhibition of growth at 20 ppm in the data set on Gaeumannomyces graminis of at least 80%. The same compound returned an inhibition of growth at 20 ppm in data set [2] of at least 80%. Besides, the inhibition of growth at 20 ppm in data set [3] is at least 80%. In data set [4], the inhibition of growth at 20 ppm is at least 80%.

With `Cn1nc2ccccc2c1C1=NC(C)(C)C(F)(F)c2ccccc21` [Compound E-13, 4,4-difluoro-3,3-dimethyl-1-(2-methylindazol-3-yl)isoquinoline], the inhibition of growth at 20 ppm (in data set [1]; in data set [2]; in the data set with Sclerotinia sclerotiorum; in data set [3]; in data set [4]) was at least 80% each time.

As to `Cc1ccc2c(C3=NC(C)(C)C(=O)c4ccccc43)n(C)nc2c1C` [Compound E-29, 3,3-dimethyl-1-(2,6,7-trimethylindazol-3-yl)isoquinolin-4-one], the melting point was in the range of 174 to 177 °C. In addition, in data set [1], the inhibition of growth at 20 ppm is at least 80%. Moreover, the inhibition of growth at 20 ppm in the data set on Fusarium culmorum was at least 80%. The inhibition of growth at 20 ppm in data set [2] was at least 80%. The inhibition of growth at 20 ppm with Sclerotinia sclerotiorum was at least 80%. Moreover, the inhibition of growth at 20 ppm in data set [3] was at least 80%. Besides, the inhibition of growth at 20 ppm in data set [4] is at least 80%.

As for `Cn1nc2ccccc2c1C1=NC(C)(C)C(=O)c2ccccc21`, the melting point lay within 169 to 170 °C.

The compound `Cn1nc2ccccc2c1C1=NC(C)(C)C(Br)c2ccccc21` (stereo not drawn) had a melting point of 165 to 166 °C.

The compound `Cn1nc2ccccc2c1C1=NC(C)(C)Cc2ccccc21` [Compound E-2, 3,3-dimethyl-1-(2-methylindazol-3-yl)-4H-isoquinoline] came in with a melting point of 107 to 108 °C. In data set [1], this compound gave an inhibition of growth at 20 ppm of at least 80%. Further, in data set [2], the inhibition of growth at 20 ppm was at least 80%. In addition, the inhibition of growth at 20 ppm with Sclerotinia sclerotiorum was at least 80%. In addition, in data set [3], the inhibition of growth at 20 ppm was at least 80%. In addition, in data set [4], the inhibition of growth at 20 ppm is at least 80%.

On to `Cn1nc2c(Br)cccc2c1C1=NC(C)(C)C(Br)c2ccccc21` (stereo not drawn) [Compound E-7, 4-bromo-1-(7-bromo-2-methyl-indazol-3-yl)-3,3-dimethyl-4H-isoquinoline], for which the inhibition of growth at 20 ppm in data set [1] is at least 80%.

Compound `Cc1cccc2c(C3=NC(C)(C)C(F)(F)c4ccccc43)n(C)nc12` [Compound E-11, 1-(2,7-dimethylindazol-3-yl)-4,4-difluoro-3,3-dimethyl-isoquinoline] displayed a melting point of 136 to 137 °C. This compound displayed an inhibition of growth at 20 ppm in data set [1] of at least 80%. The inhibition of growth at 20 ppm in the data set with Fusarium culmorum was at least 80%. Further, in data set [2], the inhibition of growth at 20 ppm is at least 80%. Besides, the inhibition of growth at 20 ppm in the data set with Sclerotinia sclerotiorum is at least 80%. Also, the inhibition of growth at 20 ppm in data set [3] was at least 80%. In data set [4], the inhibition of growth at 20 ppm was at least 80%.

Consider `Cn1nc2c(Cl)c(Cl)ccc2c1C1=NC(C)(C)Cc2ccccc21` [Compound E-24, 1-(6,7-dichloro-2-methyl-indazol-3-yl)-3,3-dimethyl-4H-isoquinoline], for which the melting point was 197 to 199 °C. In data set [1], this compound yielded an inhibition of growth at 20 ppm of at least 80%.

Compound `Cc1ccc2c(C3=NC(C)(C)C(F)(F)c4ccccc43)n(C)nc2c1C` [Compound E-25, 4,4-difluoro-3,3-dimethyl-1-(2,6,7-trimethylindazol-3-yl)isoquinoline] gave a melting point of 154 to 157 °C. This compound returned an inhibition of growth at 20 ppm in data set [1] of at least 80%. In the data set with Fusarium culmorum, the inhibition of growth at 20 ppm is at least 80%. In data set [2], this compound displayed an inhibition of growth at 20 ppm of at least 80%. Also, the inhibition of growth at 20 ppm in the data set with Sclerotinia sclerotiorum was at least 80%. In data set [3], the inhibition of growth at 20 ppm was at least 80%. This compound also came in with an inhibition of growth at 20 ppm in data set [4] of at least 80%.

In the case of `Cn1nc2cc(F)ccc2c1C1=NC(C)(C)C(C)(C)c2c(F)cccc21` [Compound E-21, 5-fluoro-1-(6-fluoro-2-methyl-indazol-3-yl)-3,3,4,4-tetramethyl-isoquinoline], the melting point fell in the range of 131 to 133 °C. This compound also registered an inhibition of growth at 20 ppm in data set [1] of at least 80%. The inhibition of growth at 20 ppm with Fusarium culmorum was at least 80%. This compound also came in with an inhibition of growth at 20 ppm in data set [2] of at least 80%. In data set [3], the inhibition of growth at 20 ppm is at least 80%. The compound also registered an inhibition of growth at 20 ppm in data set [4] of at least 80%.

On to `CC1(C)N=C(c2onc3c(Cl)cccc23)c2ccccc2C1(F)F` [Compound E-31, 7-chloro-3-(4,4-difluoro-3,3-dimethyl-1-isoquinolyl)-2,1-benzoxazole], for which the inhibition of growth at 20 ppm (in data set [1]; in the data set with Gaeumannomyces graminis; in data set [2]; with Sclerotinia sclerotiorum; in data set [3]) was at least 80% throughout.

In turn, `Cn1nc2c(Br)cccc2c1C1=NC(C)(C)C(O)c2c(F)cccc21` (stereo not drawn) returned a melting point of 103 to 105 °C.

For the compound `Cn1nc2c(Br)cccc2c1C1=NC(C)(C)Cc2c(F)cccc21` [Compound E-15, 1-(7-bromo-2-methyl-indazol-3-yl)-5-fluoro-3,3-dimethyl-4H-isoquinoline], the melting point was 168 to 169 °C. The compound further displayed an inhibition of growth at 20 ppm in data set [1] of at least 80%. Further, the inhibition of growth at 20 ppm in data set [3] is at least 80%. This compound also displayed an inhibition of growth at 20 ppm in data set [4] of at least 80%.
